From patent US6921541B2, “Formulations and methods for providing prolonged local anesthesia” (Euro-Celtique S.A., priority 1995, dated 2005)
Where two headings read alike, the source gives them in different places.

Tests used:
[1] = test system: rat sciatic nerve
[2] = immediate release vasoconstrictor; at best; cited from earlier work

COc1cc2c(c(OC)c1OC)-c1ccc(OC)c(=O)cc1[C@@H](NC(C)=O)CC2 [Colchicine]
Duration Anesthesia As Percent of Control ([1]; 0.1 % additive conc., Placebo (no bupivacaine)): 0% of Control | Duration Anesthesia As Percent of Control (toxicity noted) ([1]; 10 % additive conc. in carrier vehicle, LAB 150 mg/kg): toxic | Duration Anesthesia As Percent of Control ([1]; 10 % additive conc., no LAB): 0% of Control

CNC[C@H](O)c1ccc(O)c(O)c1 [epinephrine]
prolongation of local anesthetic activity [2]: about 1 hour
